Tested on: dopaminergic neurons in the SNc
Assay: 6-OHDA lesion, TH staining of striatum and SNc
Type: in vivo, mouse
Conditions: bilateral injection into the striatum, 800 nL of 5 mg/mL per side, 1 week
Method: A PD mouse model was generated using 6-OHDA. Desipramine (Sigma) was administrated (25 mg/kg) via intraperitoneal injection 30 min before a 6-OHDA injection. The stereotactic injection procedure was identical to the AAV injection described above. A volume of 800 nL 6-OHDA (5 mg/mL) was injected into each side of striatum (from bregma: AP 0.5 mm, ML ±1.5 mm, DV –3.2 mm) at a rate of 100 nL/min. One week after 6-OHDA lesions were generated, AAV injections were administered, and behavioral tests were conducted 3 weeks after AAV injections.
Animals were deeply anesthetized and perfused with saline and 4% paraformaldehyde perfusion through left ventricle. The mouse brains were extracted, fixed overnight, and then dehydrated with 30% sucrose solution. After being embedded in OCT (Sakura), brain sections were prepared at 40 μm thickness by a cryostat (Leica, CM1950).
Brain slices were blocked and permeabilized with PBS containing 5% bovine serum albumin (BSA) and 0.3% Triton X-100 for 30 min. The slices were then incubated with anti-GFP (Abcam, ab13970) or anti-TH (Abcam, ab76442), diluted to 1:500 in PBS containing 5% BSA at 4°C overnight. The sections were then incubated with diluted Alexa Fluor 488 goat anti-chicken IgG antibody (Thermo Fisher, A-11039) or Alexa Fluor 594 donkey anti-mouse IgG antibody (Thermo Fisher, A32744) at room temperature for 1 h. […]

NCCc1cc(O)c(O)cc1O [6-OHDA, 6-hydroxydopamine]
dopaminergic neurons in the SNc and dopaminergic innervation in the striatum: almost complete loss

Source: publication PMC12015759, “A humanized Gs-coupled DREADD for circuit and behavior modulation” (Frontiers in Cellular Neuroscience, 2025)
